The values that follow come from patent US6232450A, “Inhibition of human fucosyltransferases with N-linked Lewis-x and LacNAc analogs” (The Scripps Research Institute, priority 1999, dated 2001).

For the first series, the target named is T1, FucT V (Homo sapiens, UniProt Q11128).
T1 sequence (Q11128 1-374): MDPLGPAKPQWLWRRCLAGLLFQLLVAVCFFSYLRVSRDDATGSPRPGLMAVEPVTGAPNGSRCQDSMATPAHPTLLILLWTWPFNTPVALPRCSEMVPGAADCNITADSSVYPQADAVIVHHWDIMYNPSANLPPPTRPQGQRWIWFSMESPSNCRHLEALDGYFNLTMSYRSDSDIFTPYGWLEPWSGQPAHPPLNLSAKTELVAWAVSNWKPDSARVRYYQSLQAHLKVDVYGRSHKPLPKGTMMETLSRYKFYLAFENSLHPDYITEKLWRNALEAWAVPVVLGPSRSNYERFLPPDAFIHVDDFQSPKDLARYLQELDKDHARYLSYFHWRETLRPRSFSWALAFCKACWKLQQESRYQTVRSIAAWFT
Nature of the series: Test whether inhibitor is a slow substrate or an inactivator of FucT V (pre-incubation, then GDP-[U-14C]-fucose transfer). Type of series: biochemical. As to conditions: 0.010 mM inhibitor, 2.1 munits FucT V, 0.30 mM LacNAc-b-O-(CH2)5CO2CH3, 10 mM MnCl2, 100 mM MES pH 6.0, incubation 0-80 min at room temperature. Here is the method: A 0.350 mL solution that contained 10 mM MnCl2, 2.1 munits FucT V, 0.30 mM LacNAc-b-O-(CH2)5 CO2 CH3, 0.010 mM inhibitor (7a, 7b, 7c, 8a, 8b, or 8c), and 100 mM MES (pH 6.0). This solution was subject to incubation at room temperature for various time periods (0, 3, 10, 20, 30, 60, 80 min). After the incubation time, a 0.050 mL aliquot was removed and GDP-[U-^14 C]-fucose was added to a final concentration of 0.050 mM to initiate the fucosyltransfer reaction. After a 30 minute reaction time period, the solution was passed through a Dowex 1 column and the amount of product determined.
As for `CCCO[C@@H]1O[C@H](CO)[C@@H](O[C@@H]2O[C@H](CO)[C@H](O)[C@H](O)[C@H]2O)[C@H](NCCN2[C@H](CO)[C@@H](O)[C@H](O)[C@H](O)[C@@H]2C)[C@H]1NC(C)=O` [8c], the “slow substrate or inactivator of FucT V” value is given as “not a slow substrate or an inactivator”. Still for that read-out and setting: the value for `CCCO[C@@H]1O[C@H](CO)[C@@H](O)[C@H](N(C)CCN2[C@H](CO)[C@@H](O)[C@H](O)[C@H](O)[C@@H]2C)[C@H]1NC(C)=O` [7b] was “not a slow substrate or an inactivator”; that for `CCCO[C@@H]1O[C@H](COCc2ccccc2)[C@@H](O)[C@H](NCCN2[C@H](COCc3ccccc3)[C@@H](OCc3ccccc3)[C@H](OCc3ccccc3)[C@H](OCc3ccccc3)[C@@H]2C)[C@H]1NC(C)=O` [7a] was “not a slow substrate or an inactivator”; that for `CCCO[C@@H]1O[C@H](CO)[C@@H](O[C@@H]2O[C@H](CO)[C@H](O)[C@H](O)[C@H]2O)[C@H](N(C)CCN2[C@H](CO)[C@@H](O)[C@H](O)[C@H](O)[C@@H]2C)[C@H]1NC(C)=O` [8b] was “not a slow substrate or an inactivator”. `CCCO[C@@H]1O[C@H](COCc2ccccc2)[C@@H](O[C@@H]2O[C@H](CO)[C@H](O)[C@H](O)[C@H]2O)[C@H](NCCN2[C@H](COCc3ccccc3)[C@@H](OCc3ccccc3)[C@H](OCc3ccccc3)[C@H](OCc3ccccc3)[C@@H]2C)[C@H]1NC(C)=O` [8a]: the “slow substrate or inactivator of FucT V” value was “not a slow substrate or an inactivator”.

Take `CCCO[C@@H]1O[C@H](CO)[C@@H](O)[C@H](NCCN2[C@H](CO)[C@@H](O)[C@H](O)[C@H](O)[C@@H]2C)[C@H]1NC(C)=O` [7c]: the “slow substrate or inactivator of FucT V” value is “not a slow substrate or an inactivator”.

Test system in the next series: not given
Assay: not given
As to conditions: known from literature (Hanozet et al.); cited from earlier work.
As for `C[C@@H]1N[C@H](COCc2ccccc2)[C@@H](OCc2ccccc2)[C@H](OCc2ccccc2)[C@@H]1OCc1ccccc1` [compound 5], the pKa entry is “unusually low”.
